Assay results taken from patent US10189854B2, “Substituted pyrimidine compounds” (Grünenthal GmbH, priority 2014, dated 2019).
Counter-ions that a name gives are not always drawn.

Target: human PDE4B1 (Homo sapiens (Human), UniProt Q07343)
Assay: TR-FRET assay using the LANCE Ultra cAMP kit to determine the activity of hPDE4B1
Type: biochemical
Details: IC50 inhibition of PDE4B, mean
Excerpt: TR-FRET Assay Using the LANCE® Ultra cAMP Kit to Determine the Activity of hPDE4B1
The effects of the compounds on the activity of the human PDE4B1 was quantified by measuring the production of 5′AMP from cAMP using a human recombinant enzyme expressed in Sf9 cells and the LANCE® Ultra cAMP kit, a TR-FRET detection method from PerkinElmer. The human PDE4B1 enzyme was purchased from SignalChem Lifesciences (Catalog# P92-31BG, Lot# H296-2).
The test compound, reference compound or water (control) was mixed with the enzyme (0.96 U) in a reaction buffer containing 50 mM Tris-HCl, 50 mM MgCl2 and 5 mM DTT (pH 8.5). Thereafter, the reaction was initiated by addition of 500 nM cAMP (substrate) and the mixture was incubated for 30 minutes at room temperature. For control basal measurements, the enzyme was omitted from the reaction mixture. After 30 minutes, the reaction was stopped and diluted by a factor of 100 with the reaction buffer supplemented with 500 μM IBMX. The fluorescence donor (europium chelate-labeled cAMP) and the fluorescence acceptor (anti-cAMP antibody labeled with the ULight™ dye) were then added together with 500 μM IBMX to a 10 μl aliquot. After 60 minutes, the fluorescence transfer corresponding to the amount of residual cAMP was measured at λex=337 nm, λem=620 nm and λem=665 nm using a microplate reader (PHERAstar, BMG). The enzyme activity was determined by dividing the signal measured at 665 nm by that measured at 620 nm (ratio) multiplied by 10000. The results were expressed as percent inhibition of the control enzyme activity. IC50 values (IC50=concentration causing a half-maximal inhibition of control specific activity) were derived from dose response measurements with ten different concentrations (n=3; N=1-3).
Several compounds according to the invention are tested with above mentioned assay.

human PDE4B1, sequence (Q07343 whole entry): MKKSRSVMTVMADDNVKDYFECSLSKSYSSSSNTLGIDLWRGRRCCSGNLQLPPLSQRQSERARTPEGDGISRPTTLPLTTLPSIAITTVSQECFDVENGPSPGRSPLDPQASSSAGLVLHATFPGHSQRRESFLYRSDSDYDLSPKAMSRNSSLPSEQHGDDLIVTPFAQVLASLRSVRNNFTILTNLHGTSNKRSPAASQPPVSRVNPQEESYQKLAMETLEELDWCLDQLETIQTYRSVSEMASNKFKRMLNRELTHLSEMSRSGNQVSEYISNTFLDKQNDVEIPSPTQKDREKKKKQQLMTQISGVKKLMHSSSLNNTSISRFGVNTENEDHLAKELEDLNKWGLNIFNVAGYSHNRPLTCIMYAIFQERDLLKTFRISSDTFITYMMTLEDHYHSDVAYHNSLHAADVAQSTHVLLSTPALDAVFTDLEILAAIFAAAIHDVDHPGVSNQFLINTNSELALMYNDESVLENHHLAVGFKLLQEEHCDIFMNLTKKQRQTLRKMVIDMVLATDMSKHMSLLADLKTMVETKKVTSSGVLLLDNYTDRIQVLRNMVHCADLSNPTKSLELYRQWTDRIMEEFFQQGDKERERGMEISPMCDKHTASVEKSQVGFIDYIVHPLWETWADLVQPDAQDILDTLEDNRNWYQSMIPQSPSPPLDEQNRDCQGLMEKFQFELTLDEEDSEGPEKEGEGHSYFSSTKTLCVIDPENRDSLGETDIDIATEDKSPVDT

| Structure (SMILES) | IC50 |
| --- | --- |
| Nc1ccnc(-c2cnc(N3CC4(CC4)c4ccc(C(=O)N5CC6CC5CN6)cc43)nc2)c1 (stereo not shown) [Compound 263, [1-[5-(4-Amino-pyridin-2-yl)-pyrimidin-2-yl]-spiro[1,2-dihydro-indole-3,1′-cyclopropane]-6-yl]-(2,5-diazabicyclo[2.2.1]heptan-2-yl)-methanone dihydrochloride] | < 0.1 µM |
| CC(CO)N(C)C(=O)c1ccc2c(c1)N(c1ncc(-c3ccccc3F)cn1)CC21CC1 (stereo not shown) [Compound 285, 1-[5-(2-Fluorophenyl)-pyrimidin-2-yl]-N-(2-hydroxy-1-methyl-ethyl)-N-methyl-spiro[1,2-dihydro-indole-3,1′-cyclopropane]-6-carboxylic acid amide] | < 0.1 µM |
| COc1ccc(F)c(-c2cnc(N3CC4(CC4)c4ccc(C(=O)N(C)CCO)cc43)nc2)c1 [Compound 253, 1-[5-(2-Fluoro-5-methoxy-phenyl)-pyrimidin-2-yl]-N-(2-hydroxy-ethyl)-N-methyl-spiro[1,2-dihydro-indole-3,1′-cyclopropane]-6-carboxylic acid amide] | < 0.1 µM |
| CN(CCO)C(=O)c1ccc2c(c1)N(c1ncc(-c3cc(N(C)C)ccn3)cn1)CC21CC1 [Compound 272, 1-[5-(4-Dimethylamino-pyridin-2-yl)-pyrimidin-2-yl]-N-(2-hydroxy-ethyl)-N-methyl-spiro[1,2-dihydro-indole-3,1′-cyclopropane]-6-carboxylic acid amide] | < 0.1 µM |
| CN(CCO)C(=O)c1ccc2c(c1)N(c1ncc(-c3cccc(F)n3)cn1)CC21CC1 [Compound 230, 1-[5-(6-Fluoro-pyridin-2-yl)-pyrimidin-2-yl]-N-(2-hydroxy-ethyl)-N-methyl-spiro[1,2-dihydro-indole-3,1′-cyclopropane]-6-carboxylic acid amide] | < 0.1 µM |
| CC(O)c1ccnc(-c2cnc(N3CC4(CC4)c4ccc(C(=O)N5CCOCC5)cc43)nc2)c1 (stereo not shown) [Compound 293, [1-[5-[4-(1-Hydroxy-ethyl)-pyridin-2-yl]-pyrimidin-2-yl]-spiro[1,2-dihydro-indole-3,1′-cyclopropane]-6-yl]-morpholin-4-yl-methanone] | < 0.1 µM |
| C[C@@H](O)CN1CCN(C(=O)c2ccc3c(c2)N(c2ncc(-c4ccccc4F)cn2)CC32CC2)CC1 [Compound 239, [1-[5-(2-Fluorophenyl)-pyrimidin-2-yl]-spiro[1,2-dihydro-indole-3,1′-cyclopropane]-6-yl]-[4-[(2R)-2-hydroxy-propyl]-piperazin-1-yl]-methanone] | < 0.1 µM |
| CN(C)c1ccnc(-c2cnc(N3CC4(CC4)c4ccc(C(=O)N5C[C@@H]6C[C@H]5CN6)cc43)nc2)c1 [Compound 302, [(1S,4S)-2,5-Diazabicyclo[2.2.1]heptan-2-yl]-[1-[5-(4-dimethylamino-pyridin-2-yl)-pyrimidin-2-yl]-spiro[1,2-dihydro-indole-3,1′-cyclopropane]-6-yl]-methanone] | < 0.1 µM |
| O=C(O)CN1CCN(C(=O)c2ccc3c(c2)N(c2ncc(-c4ccccc4F)cn2)CC32CC2)CC1 [Compound 237, 2-[4-[1-[5-(2-Fluorophenyl)-pyrimidin-2-yl]-spiro[1,2-dihydro-indole-3,1′-cyclopropane]-6-carbonyl]-pieprazin-1-yl]-acetic acid] | 0.1 to 1 µM |
| Cc1cc(N)cc(-c2cnc(N3CC4(CC4)c4ccc(C(=O)N(C)CCO)cc43)nc2)n1 [Compound 261, 1-[5-(4-Amino-6-methyl-pyridin-2-yl)-pyrimidin-2-yl]-N-(2-hydroxy-ethyl)-N-methyl-spiro[1,2-dihydro-indole-3,1′-cyclopropane]-6-carboxylic acid amide] | < 0.1 µM |
| CN(CC(N)=O)C(=O)c1ccc2c(c1)N(c1ncc(-c3ccccn3)cn1)CC21CC1 [Compound 320, N-(2-amino-2-oxoethyl)-N-methyl-1′-(5-(pyridin-2-yl)pyrimidin-2-yl)spiro[cyclopropane-1,3′-indoline]-6′-carboxamide] | < 0.1 µM |
| CN(C)C(=O)c1ccc2c(c1)N(c1ncc(-c3cc(N(C)C)ccn3)cn1)CC21CC1 [Compound 271, 1-[5-(4-Dimethylamino-pyridin-2-yl)-pyrimidin-2-yl]-N,N-dimethyl-spiro[1,2-dihydro-indole-3,1′-cyclopropane]-6-carboxylic acid amide] | < 0.1 µM |
| CCc1ccnc(-c2cnc(N3CC4(CC4)c4ccc(C(=O)N5CCCC5)cc43)nc2)c1 [Compound 275, [1-[5-(4-Ethyl-pyridin-2-yl)-pyrimidin-2-yl]-spiro[1,2-dihydro-indole-3,1′-cyclopropane]-6-yl]-pyrrolidin-1-yl-methanone] | < 0.1 µM |
| O=C(c1ccc2c(c1)N(c1ncc(-c3ccccc3F)cn1)CC21CC1)N(CCO)C1CC1 [Compound 278, N-Cyclopropyl-1-[5-(2-fluorophenyl)-pyrimidin-2-yl]-N-(2-hydroxy-ethyl]-spiro[1,2-dihydro-indole-3,1′-cyclopropane]-6-carboxylic acid amide] | < 0.1 µM |

Other lines, results leading:

| IC50 | Structure (SMILES) |
| --- | --- |
| < 0.1 µM | O=C(c1ccc2c(c1)N(c1ncc(-c3cc(C4CC4)ccn3)cn1)CC21CC1)N1CCC[C@@H](CO)C1 [Compound 336, [1-[5-(4-Cyclopropyl-pyridin-2-yl)-pyrimidin-2-yl]-spiro[1,2-dihydro-indole-3,1′-cyclopropane]-6-yl]-[(3R)-3-(hydroxymethyl)-piperidin-1-yl]-methanone] |
| < 0.1 µM | CC(O)c1cccc(-c2cnc(N3CC4(CC4)c4ccc(C(=O)N(C)CCO)cc43)nc2)c1 (stereo not shown) [Compound 322, N-(2-Hydroxy-ethyl)-1-[5-[3-(1-hydroxy-ethyl)-phenyl]-pyrimidin-2-yl]-N-methyl-spiro[1,2-dihydro-indole-3,1′-cyclopropane]-6-carboxylic acid amide] |
| < 0.1 µM | CN(CC(N)=O)C(=O)c1ccc2c(c1)N(c1ncc(-c3cc(C4CC4)ccn3)cn1)CC21CC1 [Compound 337, N-(Carbamoyl-methyl)-1-[5-(4-cyclopropyl-pyridin-2-yl)-pyrimidin-2-yl]-N-methyl-spiro[1,2-dihydro-indole-3,1′-cyclopropane]-6-carboxylic acid amide] |
| < 0.1 µM | C[S+]([O-])c1ccnc(-c2cnc(N3CC4(CC4)c4ccc(C(=O)N5CCOCC5)cc43)nc2)c1 (stereo not shown) [Compound 344, (1′-(5-(4-(methylsulfinyl)pyridin-2-yl)pyrimidin-2-yl)spiro[cyclopropane-1,3′-indolin]-6′-yl)(morpholino)methanone] |
| < 0.1 µM | Cc1nc(-c2cnc(N3CC4(CC4)c4ccc(C(=O)N(C)CCO)cc43)nc2)cs1 [Compound 324, N-(2-Hydroxy-ethyl)-N-methyl-1-[5-(2-methyl-thiazol-4-yl)-pyrimidin-2-yl]-spiro[1,2-dihydro-indole-3,1′-cyclopropane]-6-carboxylic acid amide] |
| < 0.1 µM | CN(CCO)C(=O)c1ccc2c(c1)N(c1ncc(-c3nc(CO)cs3)cn1)CC21CC1 [Compound 357, N-(2-Hydorxy-ethyl)-1-[5-[4-(hydroxymethyl)-thiazol-2-yl]-pyrimidin-2-yl]-N-methyl-spiro[1,2-dihydro-indole-3,1′-cyclopropane]-6-carboxylic acid amide] |
| < 0.1 µM | CN(CCO)C(=O)c1ccc2c(c1)N(c1ncc(-c3cn(C)cn3)cn1)CC21CC1 [Compound 323, N-(2-Hydroxy-ethyl)-N-methyl-1-[5-(1-methyl-1H-imidazol-4-yl)-pyrimidin-2-yl]-spiro[1,2-dihydro-indole-3,1′-cyclopropane]-6-carboxylic acid amide] |
| < 0.1 µM | COc1ccnc(-c2cnc(N3CC4(CC4)c4ccc(C(=O)N(C)CC(N)=O)cc43)nc2)c1 [Compound 321, N-(Carbamoyl-methyl)-1-[5-(4-methoxy-pyridin-2-yl)-pyrimidin-2-yl]-N-methyl-spiro[1,2-dihydro-indole-3,1′-cyclopropane]-6-carboxylic acid amide] |
| < 0.1 µM | N[C@@H]1CCN(C(=O)c2ccc3c(c2)N(c2ncc(-c4ccccn4)cn2)CC32CC2)C1 [Compound 329, [(3R)-3-Amino-pyrrolidin-1-yl]-[1-(5-pyridin-2-yl-pyrimidin-2-yl)-spiro[1,2-dihydro-indole-3,1′-cyclopropane]-6-yl]-methanone] |
| < 0.1 µM | COc1cc(OC)nc(-c2cnc(N3CC4(CC4)c4ccc(C(=O)N(C)CCO)cc43)nc2)c1 [Compound 328, 1-[5-(4,6-Dimethoxy-pyridin-2-yl)-pyrimidin-2-yl]-N-(2-hydroxy-ethyl)-N-methyl-spiro[1,2-dihydro-indole-3,1′-cyclopropane]-6-carboxylic acid amide] |
| < 0.1 µM | CN(CCO)C(=O)c1ccc2c(c1)N(c1ncc(-c3cc(N4CCCC4)ccc3F)cn1)CC21CC1 [Compound 359, 1-[5-(2-Fluoro-5-pyrrolidin-1-yl-phenyl)-pyrimidin-2-yl]-N-(2-hydroxy-ethyl)-N-methyl-spiro[1,2-dihydro-indole-3,1′-cyclopropane]-6-carboxylic acid amide] |
